In US11919858B2, “Aminonapthoquinone compounds and pharmaceutical composition for blocking ubiquitination-proteasome system in diseases” (Calgent Biotechnology Co., Ltd., priority 2015, dated 2024):
Read-outs that look alike come from different tables or passages of the source.

What was measured:
[1] = tested on: HCT116 human colorectal adenocarcinoma
Description: MPT0L056 was used to evaluate for activity against the HCT116 human colorectal adenocarcinoma.
However, MPT0E028 was administered orally (p.o.) in 1.0% CMC and 0.5% Tween 80 and given dose at 25 mg/kg daily to end schedule.
Each animal was euthanized when the tumors reached the predetermined endpoint size of 1,000 mm^3. The time to endpoint (TTE) for each mouse was calculated by the following equation:
[formula] where TTE is expressed in days, endpoint volume is in mm^3, b is the intercept, and m is the slope of the line obtained by linear regression of a log-transformed tumor growth data set. The data set is comprised of the first observation that exceeded the study endpoint volume and the three consecutive observations that immediately preceded the attainment of the endpoint volume. The calculated TTE is usually less than the day on which an animal is euthanized for tumor size. […] An animal classified as having died from treatment-related (TR) causes or non-treatment-related metastasis (NTRm) causes was assigned a TTE value equal to the day of death. An animal classified as having died from non-treatment-related (NTR) causes was excluded from TTE calculations.
Treatment efficacy was determined from tumor growth delay (TGD), which is defined as the increase in the median TTE for a treatment group compared to the control group: TGD=T−C, expressed in days, or as a percentage of the median TTE of the control group:
[formula] where: • T=median TTE for a treatment group, • C=median TTE for control Group 1.
Treatment efficacy was also determined from the tumor volumes of animals remaining in the study on the last day, and from the number of regression responses. The MTV(n) is defined as the median tumor volume on D59 in the number of animals remaining, n, whose tumors have not attained the endpoint volume.
Treatment may cause a partial regression (PR) or a complete regression (CR) of the tumor in an animal. […] An animal with a CR at the termination of a study is additionally classified as a tumor-free survivor (TFS).
Animals were weighed daily for the first five days, then twice weekly until the completion of the study. The mice were examined frequently for overt signs of any adverse, drug-related side effects. Acceptable toxicity for the MTD of cancer drugs is defined as a group mean BW loss of 20% or less during the test, and not more than one TR death among ten animals. A death is classified as TR if there is evidence of treatment side effects from clinical signs and/or necropsy or from unknown causes during dosing period or within 10 days of the last dose. A death is classified as NTR if there is no evidence that the death was related to treatment side effects.
The logrank test was used to determine the statistical significance of the difference between the TTE values of two groups, except any NTR deaths. Statistical and graphical analyses were performed with Prism 3.03 (GraphPad) for Windows. The two-tailed statistical analyses were conducted at P=0.05. Kaplan-Meier plots show the percentage of animals remaining in the study versus time. The Kaplan-Meier plots use the same data set as the log rank test. The tumor growth curves show the group median tumor volume, on a log scale as a function of time.

HCT-116 = test: Growth inhibition assay; assay type: cell-based; conditions: Homo sapiens, HCT-116; read-out: HCT-116 GI50 (μM) Mean ± S.E.
Description: (§1) Cells were seeded in 96-well plastic plates and exposed to MPT0L056 for 48 hours. Cell viability was assessed using the 3-(4,5-dimethylthiazol-2-yl)-2,5-diphenyltetrazolium bromide assay. Growth inhibition was expressed as the percentage of surviving cells in drug-treated versus DMSO-treated control cells.
(§2) The compounds of the invention were subjected to growth inhibition assay.

HL-60 = test: Growth inhibition assay; assay type: cell-based; conditions: HL-60; for IC50: Homo sapiens, read-out: HL-60 IC50 (μM) Mean ± S.E.
Description: as §1, §2

Hep 3B = test: Growth inhibition assay; assay type: cell-based; conditions: Homo sapiens, Hep3B; read-out: Hep3B GI50 (μM) Mean ± S.E.
Description: as §1, §2

MDA-MB-231 = test: Growth inhibition assay; assay type: cell-based; conditions: Homo sapiens, MDA-MB-231; read-out: MDA-MB-231 GI50 (μM) Mean ± S.E.
Description: as §1, §2

[2] = Group 1 vs 2: MPT0E028 25 mg/kg
[3] = Group 2: MPT0E028 25 mg/kg po qd to endpoint

Compound | GI50 (HCT-116) [µM] | IC50 (HL-60) [µM] | GI50 (MDA-MB-231) [µM] | GI50 (Hep 3B) [µM] | other results
O=C(/C=C/c1ccc2c(c1)CCN2S(=O)(=O)c1ccccc1)NO [MPT0E028, reference compound] | – | – | – | – | Hazard Ratio [1, 2]: 3.677; Median survival [1, 2]: 40.5; Median survival Ratio [1, 2]: 0.5605; Hazard Ratio ([1]; Group 1 vs 7: 100/25 mg/kg): 1.43; Median survival ([1]; Group 1 vs 7: 100/25 mg/kg): 33.95; Median survival Ratio ([1]; Group 1 vs 7: 100/25 mg/kg): 0.6686; Hazard Ratio ([1]; Group 1 vs 8: 50/25 mg/kg): 3.433; Median survival ([1]; Group 1 vs 8: 50/25 mg/kg): 45.3; Median survival Ratio ([1]; Group 1 vs 8: 50/25 mg/kg): 0.5011; MTV (n) Day 59 [1, 3]: 454 mm^3; Median TTE [1, 3]: 40.5 days; T-C [1, 3]: 17.8 days; antitumor activity (logrank analysis) [1, 3]: produced significant antitumor activity; % TGD ([1]; Group 2: MPT0E028 25 mg/kg po qd to endpoint, 25 mg/kg): 78%; Logrank Significance ([1]; Group 2: MPT0E028 25 mg/kg po qd to endpoint, compared to Group 1): * (* = P < 0.05); Day of Max % BW Loss ([1]; mouse, in vivo, po, 25 mg/kg): 5 days; Max % BW Loss ([1]; mouse, in vivo, po, 25 mg/kg): −7.7%; No. of NTR ([1]; mouse, in vivo, po, 25 mg/kg): 0; No. of TR ([1]; mouse, in vivo, po, 25 mg/kg): 0
O=C(Nc1cccnc1)c1ccc(CNC2=C(Cl)C(=O)c3ccccc3C2=O)cc1 [MPT0L055, 4-(((3-chloro-1,4-dioxo-1,4-dihydronaphthalen-2-yl)amino)methyl)-N-(pyridin-3-yl)benzamide] | 10 to 30 | 10 to 30 | 10 to 30 | 10 to 30 | –
O=C(Nc1cnccn1)c1ccc(CNC2=C(Cl)C(=O)c3ccccc3C2=O)cc1 [MPT0L076, 4-(((3-chloro-1,4-dioxo-1,4-dihydronaphthalen-2-yl)amino)methyl)-N-(pyrazin-2-yl)benzamide] | 5.52 ± 0.66 | 7.27 ± 2.98 | 9.19 ± 0.4 | 8.77 ± 0.9 | –
O=C(Nc1ccc(F)cc1)c1ccc(CNC2=C(Cl)C(=O)c3ccccc3C2=O)cc1 [MPT0L082] | 10 to 30 | 10 to 30 | 10 to 30 | 10 to 30 | –
O=C(Nc1nccs1)c1ccc(CNC2=C(Cl)C(=O)c3ccccc3C2=O)cc1 [MPT0L085, 4-(((3-chloro-1,4-dioxo-1,4-dihydronaphthalen-2-yl)amino)methyl)-N-(thiazol-2-yl)benzamide] | 10 to 30 | 8.53 ± 0.55 | 10 to 30 | 10 to 30 | –
O=C(Nc1ccc2[nH]cnc2c1)c1ccc(CNC2=C(Cl)C(=O)c3ccccc3C2=O)cc1 [MPT0L093, N-(1H-benzo[d]imidazol-5-yl)-4-((3-chloro-1,4-dioxo-1,4-dihydronaphthalen-2-ylamino)methyl)benzamide] | 10 to 30 | 10 to 30 | 10 to 30 | 10 to 30 | –
Nc1ccn(C(=O)c2ccc(CNC3=C(Cl)C(=O)c4ccccc4C3=O)cc2)n1 [MPT0L094, 2-(4-(3-amino-1H-pyrazole-1-carbonyl)benzylamino)-3-chloronaphthalene-1,4-dione] | 10 to 30 | – | 10 to 30 | 10 to 30 | HL-60 IC50 (μM) Mean ± S.E. (HL-60): 110~30 μM
Cc1cnc(NC(=O)c2ccc(CNC3=C(Cl)C(=O)c4ccccc4C3=O)cc2)s1 [MPT0L098, 4-((3-chloro-1,4-dioxo-1,4-dihydronaphthalen-2-ylamino)methyl)-N-(5-methylthiazol-2-yl)benzamide] | 10 to 30 | 7.06 ± 0.73 | 10 to 30 | 10 to 30 | –
Cc1cc(NC(=O)c2ccc(CNC3=C(Cl)C(=O)c4ccccc4C3=O)cc2)n[nH]1 [MPT0L099, 4-((3-chloro-1,4-dioxo-1,4-dihydronaphthalen-2-ylamino)methyl)-N-(5-methyl-3H-pyrazol-3-yl)benzamide] | 10 to 30 | 10 to 30 | 10 to 30 | 10 to 30 | –
Cc1cc(N)nn1C(=O)c1ccc(CNC2=C(Cl)C(=O)c3ccccc3C2=O)cc1 [MPT0L100, 2-(4-(3-amino-5-methyl-1H-pyrazole-1-carbonyl)benzylamino)-3-chloronaphthalene-1,4-dione] | 10 to 30 | 10 to 30 | 10 to 30 | 10 to 30 | –
O=C(Nc1ccncc1[N+](=O)[O-])c1ccc(CNC2=C(Cl)C(=O)c3ccccc3C2=O)cc1 [MPT0L103, 4-((3-chloro-1,4-dioxo-1,4-dihydronaphthalen-2-ylamino)methyl)-N-(3-nitropyridin-4-yl)benzamide] | 6.12 ± 1.17 | 5.42 ± 0.7 | 10 to 30 | 10 to 30 | –
O=C(Nc1ccc2ncccc2c1)c1ccc(CNC2=C(Cl)C(=O)c3ccccc3C2=O)cc1 [MPT0L108, 4-((3-chloro-1,4-dioxo-1,4-dihydronaphthalen-2-ylamino)methyl)-N-(quinolin-6-yl)benzamide] | 6.82 ± 0.35 | 8.09 ± 0.57 | 10 to 30 | 10 to 30 | –
O=C(Nc1cccc2cccnc12)c1ccc(CNC2=C(Cl)C(=O)c3ccccc3C2=O)cc1 [MPT0L109, 4-((3-chloro-1,4-dioxo-1,4-dihydronaphthalen-2-ylamino)methyl)-N-(quinolin-8-yl)benzamide] | 10 to 30 | 6.43 ± 2.44 | 10 to 30 | 10 to 30 | –
O=C(Nc1cccc2ncccc12)c1ccc(CNC2=C(Cl)C(=O)c3ccccc3C2=O)cc1 [MPT0L111, 4-((3-chloro-1,4-dioxo-1,4-dihydronaphthalen-2-ylamino)methyl)-N-(quinolin-5-yl)benzamide] | 10 to 30 | 2.23 ± 0.27 | 10 to 30 | 10 to 30 | –

Further lines, with some results ahead:

GI50 (HCT-116) [µM] | IC50 (HL-60) [µM] | GI50 (MDA-MB-231) [µM] | Compound | GI50 (Hep 3B) [µM] | other results
10 to 30 | 10 to 30 | 10 to 30 | O=C(Nc1ccccn1)c1ccc(CNC2=C(Cl)C(=O)c3ccccc3C2=O)cc1 [MPT0L018, 4-(((3-chloro-1,4-dioxo-1,4-dihydronaphthalen-2-yl)amino)methyl)-N-(pyridin-2-yl)benzamide] | 10 to 30 | –
10 to 30 | 10 to 30 | 10 to 30 | O=C(Nc1ccccc1)c1ccc(CNC2=C(Cl)C(=O)c3ccccc3C2=O)cc1 [MPT0L083, 4-(((3-chloro-1,4-dioxo-1,4-dihydronaphthalen-2-yl)amino)methyl)-N-phenylbenzamide] | 10 to 30 | –
10 to 30 | 10 to 30 | 8.88 ± 1.04 | O=C(Nc1nc2ccccc2[nH]1)c1ccc(CNC2=C(Cl)C(=O)c3ccccc3C2=O)cc1 [MPT0L086, N-(1H-benzo[d]imidazol-2-yl)-4-(((3-chloro-1,4-dioxo-1,4-dihydronaphthalen-2-yl)amino)methyl)benzamide] | 10 to 30 | –
10 to 30 | 10 to 30 | 10 to 30 | O=C(Nc1ccc2[nH]ncc2c1)c1ccc(CNC2=C(Cl)C(=O)c3ccccc3C2=O)cc1 [MPT0L097, 4-((3-chloro-1,4-dioxo-1,4-dihydronaphthalen-2-ylamino)methyl)-N-(1H-indazol-5-yl)benzamide] | 10 to 30 | –
10 to 30 | 7.93 ± 1.14 | 10 to 30 | O=C(Nc1cnc2ccccc2c1)c1ccc(CNC2=C(Cl)C(=O)c3ccccc3C2=O)cc1 [MPT0L110, 4-((3-chloro-1,4-dioxo-1,4-dihydronaphthalen-2-ylamino)methyl)-N-(quinolin-3-yl)benzamide] | 10 to 30 | –
10 to 30 | 2.68 ± 0.03 | 8.12 ± 1.32 | Cc1cc(NC(=O)c2ccc(CNC3=C(Cl)C(=O)c4ccccc4C3=O)cc2)c2ccccc2n1 [MPT0L112, 4-((3-chloro-1,4-dioxo-1,4-dihydronaphthalen-2-ylamino)methyl)-N-(2-methylquinolin-4-yl)benzamide] | 10 to 30 | –
